Assay results published in PubChem BioAssay AID330 (DTP/NCI, 2004).
Values joined by “and” are separate entries in the source; they are usually repeats but may differ in a detail not shown here. Equal values may be shown once. Inconclusive results and toxic doses are left out.

Tested on: P388 leukemia ip, CD2F1 mice, survival T/C
Assay: NCI In Vivo Anticancer Drug Screen. Data for tumor model P388 Leukemia (intraperitoneal) in CD2F1 (CDF1) mice
Settings: endpoint: median survival time, higher = longer survival
In short: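 Mice carrying the transplanted tumor received test compound or vehicle. Survival was recorded in each group, and the value is the treated-group measurement divided by that of the vehicle-treated control group.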

[1] = dose: 50.0 mg/kg/injection, schedule: Q01DX005 (ip), vehicle: saline with Tween-80
[2] = dose: 100.0 mg/kg/injection, schedule: Q01DX005 (ip), vehicle: saline with Tween-80
[3] = dose: 60.0 mg/kg/injection, schedule: Q01DX005 (ip), vehicle: saline with Tween-80
[4] = dose: 120.0 mg/kg/injection, schedule: Q01DX005 (ip), vehicle: saline with Tween-80
[5] = dose: 240.0 mg/kg/injection, schedule: Q01DX005 (ip), vehicle: saline with Tween-80
[6] = dose: 50.0 mg/kg/injection, schedule: Q01DX009 (ip), vehicle: saline with Tween-80
[7] = dose: 60.0 mg/kg/injection, schedule: Q01DX005 (ip), vehicle: saline
[8] = dose: 120.0 mg/kg/injection, schedule: Q01DX005 (ip), vehicle: saline
[9] = dose: 50.0 mg/kg/injection, schedule: Q01DX009 (ip), vehicle: Klucel (hydroxypropylcellulose) (HPC)
[10] = dose: 100.0 mg/kg/injection, schedule: Q01DX009 (ip), vehicle: Klucel (hydroxypropylcellulose) (HPC)
[11] = dose: 200.0 mg/kg/injection, schedule: Q01DX009 (ip), vehicle: Klucel (hydroxypropylcellulose) (HPC)
[12] = dose: 100.0 mg/kg/injection, schedule: Q04DX003 (ip), vehicle: saline with Tween-80
[13] = dose: 200.0 mg/kg/injection, schedule: Q04DX003 (ip), vehicle: saline with Tween-80
[14] = dose: 400.0 mg/kg/injection, schedule: Q04DX003 (ip), vehicle: saline with Tween-80
[15] = dose: 25.0 mg/kg/injection, schedule: Q01DX005 (ip), vehicle: Klucel (hydroxypropylcellulose) (HPC)
[16] = dose: 50.0 mg/kg/injection, schedule: Q01DX005 (ip), vehicle: Klucel (hydroxypropylcellulose) (HPC)
[17] = dose: 100.0 mg/kg/injection, schedule: Q01DX005 (ip), vehicle: Klucel (hydroxypropylcellulose) (HPC)
[18] = dose: 12.5 mg/kg/injection, schedule: Q01DX005 (ip), vehicle: saline with Tween-80
[19] = dose: 25.0 mg/kg/injection, schedule: Q01DX005 (ip), vehicle: saline with Tween-80

`N#Cc1sc(=S)n(-c2ccccc2)c1N` was tested, and the T/C (dose: 12.5 mg/kg/injection, schedule: Q01DX009 (ip), vehicle: saline) was 98 % of control, the T/C (dose: 25.0 mg/kg/injection, schedule: Q01DX009 (ip), vehicle: saline) was 107 % of control and the T/C (dose: 50.0 mg/kg/injection, schedule: Q01DX009 (ip), vehicle: saline) was 103 % of control and 104 % of control.

With `COC1=CC(=O)C(C2(OC(C)C)OC(=O)C(Cl)=C2Cl)=CC1=O` (stereo not drawn) the T/C [1] was 119 % of control and the T/C [2] was 111 % of control.

`CCOC(=O)c1cn(C(=O)CCl)c2ccccc2c1=O` was tested, and the T/C [3] was 103 % of control, the T/C [4] was 100 % of control and the T/C [5] was 97 % of control.

With `CN(C)c1ccc(N(C)C)c(C(O)(c2ccccc2)c2ccccc2)c1` the T/C [6] was 88 % of control.

With `COc1cc2c(cc1OC)CN1CSc3cc(OC)c(OC)cc3C1C2` (stereo not drawn) the T/C (dose: 100.0 mg/kg/injection, schedule: Q01DX001 (ip), vehicle: saline with Tween-80) was 92 % of control and the T/C (dose: 200.0 mg/kg/injection, schedule: Q01DX001 (ip), vehicle: saline with Tween-80) was 92 % of control.

For `Cc1[nH]nc(N)c1C(N)=O`, the T/C [3] was 100 % of control, the T/C [4] was 99 % of control and the T/C [5] was 86 % of control.

For `CCOP(=O)(CC=O)OCC`, the T/C [7] was 95 % of control, the T/C [8] was 100 % of control and the T/C (dose: 240.0 mg/kg/injection, schedule: Q01DX005 (ip), vehicle: saline) was 101 % of control.

In the case of `CCN(C(=S)NCCCOC)c1ccc(C)cc1`, the T/C [9] is reported as 97 % of control, the T/C [10] is reported as 86 % of control and the T/C [11] is reported as 87 % of control.

For `Nc1nc(Cl)c2nc(Cl)n(C3OC(CO)C(O)C3O)c2n1` (stereo not drawn), the T/C (dose: 50.0 mg/kg/injection, schedule: Q04DX003 (ip), vehicle: saline with Tween-80) was 100 % of control, the T/C [12] was 100 % of control and the T/C [13] was 100 % of control. For the same compound, the T/C [14] was 91 % of control.

In the case of `c1ccc(-c2nc3ccccc3nc2-c2ccc(-c3nc4ccccc4nc3-c3ccccc3)cc2)cc1`, the T/C (dose: 6.25 mg/kg/injection, schedule: Q01DX009 (ip), vehicle: saline with Tween-80) is reported as 112 % of control and the T/C (dose: 12.5 mg/kg/injection, schedule: Q01DX009 (ip), vehicle: saline with Tween-80) is reported as 90 % of control.

For `CCC(CC)C1NC(C(=O)O)CS1` (stereo not drawn), the T/C (dose: 50.0 mg/kg/injection, schedule: Q01DX009 (ip), vehicle: suspension in saline) was 93 % of control, the T/C (dose: 100.0 mg/kg/injection, schedule: Q01DX009 (ip), vehicle: suspension in saline) was 96 % of control and the T/C (dose: 200.0 mg/kg/injection, schedule: Q01DX009 (ip), vehicle: suspension in saline) was 92 % of control.

In the case of `Cc1cc(=O)n2c(nc3cc([N+](=O)[O-])ccc32)s1`, the T/C [9] is reported as 98 % of control, the T/C [10] is reported as 99 % of control and the T/C [11] is reported as 98 % of control.

`Nc1c(/C=C/c2cc3ccc(C4=NCCN4)cc3[nH]2)[nH]c2cc(C3=NCCN3)ccc12` was tested, and the T/C (dose: 12.5 mg/kg/injection, schedule: Q01DX005 (ip), vehicle: Klucel (hydroxypropylcellulose) (HPC)) was 111 % of control, the T/C [15] was 120 % of control and the T/C [16] was 189 % of control. The T/C [17] was 223 % of control.

With `O=C1/C(=C\O)C2CCC3CCC4CC1C342` (stereo not drawn) the T/C [15] was 103 % of control, the T/C [16] was 97 % of control and the T/C [17] was 107 % of control.

In the case of `COc1ccc(-c2cn(-c3ccc(I)cc3)c3ncnc(N)c23)cc1`, the T/C [3] is reported as 99 % of control, the T/C [4] is reported as 105 % of control and the T/C [5] is reported as 90 % of control.

For `C/C(=N\NC(=S)N1CCCC1)c1nccs1`, the T/C [18] was 109 % of control, the T/C [19] was 104 % of control and the T/C [1] was 108 % of control and 114 % of control.

In the case of `CCCCCN(CCCCC)CCC(O)c1cccc2ccccc12` (stereo not drawn), the T/C [18] is reported as 100 % of control, the T/C [19] is reported as 105 % of control and the T/C [1] is reported as 103 % of control and 113 % of control.

`O=C1OCCC1(S)C(O)c1ccccc1` (stereo not drawn) was tested, and the T/C (dose: 21.25 mg/kg/injection, schedule: Q01DX005 (ip), vehicle: acetone) was 103 % of control, the T/C (dose: 42.5 mg/kg/injection, schedule: Q01DX005 (ip), vehicle: acetone) was 100 % of control and the T/C (dose: 85.0 mg/kg/injection, schedule: Q01DX005 (ip), vehicle: acetone) was 103 % of control.

In the case of `N#Cc1ncc(C=P(c2ccccc2)(c2ccccc2)c2ccccc2)n(O)c1=N`, the T/C [6] is reported as 101 % of control and the T/C (dose: 100.0 mg/kg/injection, schedule: Q01DX009 (ip), vehicle: saline with Tween-80) is reported as 104 % of control.

With `C/C(C#N)=C1/Nc2ccccc2NC1=O` the T/C (dose: 25.0 mg/kg/injection, schedule: Q01DX009 (ip), vehicle: distilled water + Tween-80 + alcohol) was 95 % of control, the T/C (dose: 50.0 mg/kg/injection, schedule: Q01DX009 (ip), vehicle: distilled water + Tween-80 + alcohol) was 88 % of control and 92 % of control and the T/C (dose: 100.0 mg/kg/injection, schedule: Q01DX009 (ip), vehicle: distilled water + Tween-80 + alcohol) was 91 % of control. For the same compound, the T/C (dose: 200.0 mg/kg/injection, schedule: Q01DX009 (ip), vehicle: distilled water + Tween-80 + alcohol) was 100 % of control.

For `Cn1c(N)c(C(=O)N2CCN(c3ccccc3)CC2)c(=O)n(C)c1=O`, the T/C [9] was 94 % of control, the T/C [10] was 97 % of control and the T/C [11] was 91 % of control.

In the case of `COC(=O)C(=O)c1c(C2CC2)[nH]c2[nH]n(-c3ccccc3)c(=O)c2c1=O`, the T/C [3] is reported as 96 % of control and the T/C [4] is reported as 91 % of control.

For `O=C(Nc1ccc(Cl)c(Cl)c1)O/N=C/c1ccncc1`, the T/C (dose: 50.0 mg/kg/injection, schedule: Q01DX009 (ip), vehicle: saline + alcohol) was 96 % of control, the T/C (dose: 100.0 mg/kg/injection, schedule: Q01DX009 (ip), vehicle: saline + alcohol) was 89 % of control and the T/C (dose: 200.0 mg/kg/injection, schedule: Q01DX009 (ip), vehicle: saline + alcohol) was 89 % of control.

In the case of `COC(=O)C1C(=O)C(C(=O)OC)C2(C)C(C(=O)OC)C(=O)C(C(=O)OC)C12C` (stereo not drawn), the T/C (dose: 60.0 mg/kg/injection, schedule: Q01DX005 (ip), vehicle: Klucel (hydroxypropylcellulose) (HPC)) is reported as 103 % of control, the T/C (dose: 120.0 mg/kg/injection, schedule: Q01DX005 (ip), vehicle: Klucel (hydroxypropylcellulose) (HPC)) is reported as 102 % of control and the T/C (dose: 240.0 mg/kg/injection, schedule: Q01DX005 (ip), vehicle: Klucel (hydroxypropylcellulose) (HPC)) is reported as 103 % of control.

In the case of `CC(=O)Oc1ccc(OC(C)=O)c2c(OC(C)=O)c(C3CCC(C)(C)O3)cc(OC(C)=O)c12` (stereo not drawn), the T/C (dose: 12.5 mg/kg/injection, schedule: Q04DX002 (ip), vehicle: saline with Tween-80) is reported as 106 % of control and the T/C (dose: 25.0 mg/kg/injection, schedule: Q04DX002 (ip), vehicle: saline with Tween-80) is reported as 118 % of control.

`O=C(O)CN(CCN1CC(=O)OC(=O)C1)CCN1CC(=O)OC(=O)C1` was tested, and the T/C [7] was 102 % of control and the T/C [8] was 97 % of control.

`C=CCN1CCC23c4c5ccc(O)c4OC2C(=NN=C2CCC4(O)C6Cc7ccc(O)c8c7C4(CCN6CC=C)C2O8)CCC3(O)C1C5` (stereo not drawn) was tested, and the T/C (dose: 15.0 mg/kg/injection, schedule: Q01DX005 (ip), vehicle: saline with Tween-80) was 92 % of control, the T/C (dose: 30.0 mg/kg/injection, schedule: Q01DX005 (ip), vehicle: saline with Tween-80) was 90 % of control and the T/C [3] was 100 % of control and 101 % of control.

With `COC(=O)[C@@H]1[C@H]2CS(=O)(=O)C[C@H]2[C@@H]1C(=O)OC` the T/C [16] was 99 % of control, the T/C [17] was 96 % of control and the T/C (dose: 200.0 mg/kg/injection, schedule: Q01DX005 (ip), vehicle: Klucel (hydroxypropylcellulose) (HPC)) was 100 % of control.

In the case of `C[Si](C)(C)O[C@@H]1CCCC1NCC#N` (stereo partly drawn), the T/C [1] is reported as 101 % of control, the T/C [2] is reported as 101 % of control and the T/C (dose: 200.0 mg/kg/injection, schedule: Q01DX005 (ip), vehicle: saline with Tween-80) is reported as 92 % of control.

In the case of `C1Cc2c3c(c4c(c2C1)CCC4)CCC3`, the T/C (dose: 25.0 mg/kg/injection, schedule: Q01DX009 (ip), vehicle: Klucel (hydroxypropylcellulose) (HPC)) is reported as 91 % of control, the T/C [9] is reported as 95 % of control and the T/C [10] is reported as 91 % of control. The T/C [11] was 100 % of control.

In the case of `CCOC(=O)c1csc(CCNC(=O)c2ccccc2)n1`, the T/C (dose: 12.5 mg/kg/injection, schedule: Q01DX009 (ip), vehicle: other) is reported as 103 % of control, the T/C (dose: 25.0 mg/kg/injection, schedule: Q01DX009 (ip), vehicle: other) is reported as 102 % of control and the T/C (dose: 50.0 mg/kg/injection, schedule: Q01DX009 (ip), vehicle: other) is reported as 94 % of control. For the same compound, the T/C (dose: 100.0 mg/kg/injection, schedule: Q01DX009 (ip), vehicle: other) was 94 % of control and the T/C (dose: 200.0 mg/kg/injection, schedule: Q01DX009 (ip), vehicle: other) was 89 % of control.

With `FC(F)(F)COP(OCC(F)(F)F)OCC(F)(F)F` the T/C [12] was 118 % of control, the T/C [13] was 102 % of control and the T/C [14] was 104 % of control.
